Holding throughout (format): biochemical
Assay [1] has as its target T1, cytochrome bc1 complex of pig heart (Sus scrofa, UniProt P24964).
T1 construct: The test target is cytochrome bc1 complex of pig heart; from tissue; host or cells: pig heart
Description: Enzyme activity test, Complex III. The settings on record: cytochrome bc1 complex of pig heart; read-out: IC50 (nM) Complex III. The method, then:
(§1) Take NADH oxidase (NOX), succinate-cytochrome C oxidase (SCO), and Complex III as target enzymes, the inhibitory activity of the compound of Formula (I) was tested.
^b The test target is cytochrome bc1 complex of pig heart.

Assay [2] concerns the target succinate-cytochrome C oxidase (SCO) (Sus scrofa, UniProt P24964). As to the kind of experiment: Enzyme activity test, SCO. Here is the method: as §1
(§2) ^a NOX is generally used to detect an inhibitor of Complex I and Complex III; SCO is generally used to detect an inhibitor of Complex II and Complex III. Thus, an inhibitor of Complex III should have inhibitory activity on the two enzymes.

Assay [3] has as its target NADH oxidase (NOX) (Sus scrofa, UniProt P24964). Description: Enzyme activity test, NOX. The method, then: as §1, §2

The structures appear in SMILES notation.

T1 sequence (P24964 whole entry, one chain of several): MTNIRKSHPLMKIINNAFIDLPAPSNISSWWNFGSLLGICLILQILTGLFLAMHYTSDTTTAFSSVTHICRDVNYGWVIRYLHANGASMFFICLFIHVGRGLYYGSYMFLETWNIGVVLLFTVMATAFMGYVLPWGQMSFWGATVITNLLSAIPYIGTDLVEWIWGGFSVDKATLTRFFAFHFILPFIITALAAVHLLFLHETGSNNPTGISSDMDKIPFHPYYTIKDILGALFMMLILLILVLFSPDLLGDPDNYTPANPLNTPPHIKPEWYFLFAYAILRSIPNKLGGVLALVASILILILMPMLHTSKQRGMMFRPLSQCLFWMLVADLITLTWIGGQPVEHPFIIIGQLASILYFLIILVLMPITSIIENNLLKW
Sequence of succinate-cytochrome C oxidase (SCO) (P24964 whole entry): as the sequence (P24964 whole entry, one chain of several) above
Sequence of NADH oxidase (NOX) (P24964 whole entry): as the sequence (P24964 whole entry, one chain of several) above

Consider `CO/C=C(/C(=O)OC)c1ccccc1Oc1cc(Oc2ccccc2C#N)ncn1` [Azoxystrobin, azoxystrobin, reference compound], for which the results for the IC50 in assay [1], in assay [2] and in assay [3] were 200 nM, 13 nM and 27 nM, respectively.
